Assays:
[1] = test system: VIOTR (Viola tricolor, wild pansy); test: Post-emergence foliar-applied weed control in cereal crops, greenhouse (Example III); assay type: in vivo, Viola tricolor (L.); conditions: 8.75 gai/ha alone
Method: Seeds of the desired test plant species were planted in Sun Gro MetroMix® 306 planting mixture, which typically has a pH of 6.0 to 6.8 and an organic matter content of about 30 percent, in plastic pots with a surface area of 103.2 square centimeters (cm^2). When required to ensure good germination and healthy plants, a fungicide treatment and/or other chemical or physical treatment was applied. The plants were grown for 7-36 days in a greenhouse with an approximate 14 hour photoperiod which was maintained at about 18° C. during the day and 17° C. during the night. Nutrients and water were added on a regular basis and supplemental lighting was provided with overhead metal halide 1000-Watt lamps as necessary. The plants were employed for testing when they reached the second or third true leaf stage.
Treatments consisted of the benzyl ester of 4-amino-3-chloro-5-fluoro-6-(4-chloro-2-fluoro-3-methoxy-phenyl)pyridine-2-carboxylic acid (Compound A), formulated as an SC (suspension concentrate), and a second cereal herbicide alone and in combination.
Measured aliquot of benzyl ester of 4-amino-3-chloro-5-fluoro-6-(4-chloro-2-fluoro-3-methoxy-phenyl)pyridine-2-carboxylic acid (Compound A) was placed in 25 milliliter (mL) glass vials and diluted in a volume of 1.25% (v/v) Agri-dex crop oil concentrated to obtain stock solutions. Compound requirements are based upon a 12 mL application volume at a rate of 187 liters per hectare (L/ha). Spray solutions of the second cereal herbicide and experimental compound mixtures were prepared by adding the stock solutions to the appropriate amount of dilution solution to form 12 mL spray solution with active ingredients in two- and three-way combinations. Formulated compounds were applied to the plant material with an overhead Mandel track sprayer equipped with an 8002E nozzle calibrated to deliver 187 L/ha over an application area of 0.503 square meters (m^2) at a spray height of 18 inches (46 cm) above average plant canopy. Control plants were sprayed in the same manner with the solvent blank.
The treated plants and control plants were placed in a greenhouse as described above and watered by sub-irrigation to prevent wash-off of the test compounds. After 20-22 days, the condition of the test plants as compared with that of the control plants was determined visually and scored on a scale of 0 to 100 percent where 0 corresponds to no injury and 100 corresponds to complete kill.
Colby's equation was used to determine the herbicidal effects expected from the mixtures (Colby, S. R. 1967. Calculation of the synergistic and antagonistic response of herbicide combinations. Weeds 15:20-22.).
The following equation was used to calculate the expected activity of mixtures containing two active ingredients, A and B: Expected=A+B−(A×B/100)

[2] = test system: SETFA (Setaria faberi, giant foxtail); test: Pre-emergence soil-applied weed control, greenhouse (Example V); assay type: in vivo, Setaria faberi Herrm.; conditions: Table 59 (pre-emergence)
Text: Seeds or nutlets of the desired test plant species were planted in a soil matrix prepared by mixing a loam soil (32 percent silt, 23 percent clay, and 45 percent sand, with a pH of about 6.5 and an organic matter content of about 1.9 percent) and calcareous grit in an 80 to 20 ratio. The soil matrix was contained in plastic pots with a volume of 1 quart and a surface area of 83.6 square centimeters (cm^2).
Treatments consisted of the benzyl ester of 4-amino-3-chloro-5-fluoro-6-(4-chloro-2-fluoro-3-methoxy-phenyl)pyridine-2-carboxylic acid (compound A) formulated as an SC (suspension concentrate) and various herbicidal components alone and in combination. Forms of compound A were applied on an acid equivalent basis.
Other herbicidal components were applied on an acid equivalent or active ingredient basis and included the acetolactate synthase (ALS)-inhibiting herbicide, flazasulfuron, formulated as Katana®.
Treatment requirements were calculated based upon the rates being tested, the concentration of active ingredient or acid equivalent in the formulation, and a 12 mL application volume at a rate of 187 L/ha.
For treatments comprised of formulated compounds, measured amounts of compounds were placed individually in 25 mL glass vials and diluted in a volume of 1.25% (v/v) Agri-Dex® crop oil concentrate (COC) to obtain 12× stock solutions. […] Application solutions were prepared by adding an appropriate amount of each stock solution (e.g., 1 mL) and diluted to the appropriate final concentrations with the addition of 10 mL of an aqueous mixture of 1.25% (v/v) COC so that the final spray solutions contained 1.25% (v/v) COC. […]
The treated and control pots were placed in a greenhouse and top watered as needed. […] After approximately 4 weeks, the condition of the test plants as compared with that of the untreated plants was determined visually and scored on a scale of 0 to 100 percent where 0 corresponds to no injury or growth inhibition and 100 corresponds to complete kill. […]

## COc1c(Cl)ccc(-c2nc(C(=O)OCc3ccccc3)c(Cl)c(N)c2F)c1F [Compound A Benzyl Ester]
[1]; Table 52, after 20-22 days
  Weed Control VIOTR Obs: 50%
[1]; Table 54, after 20-22 days
  Weed Control VIOTR Obs: 50%
[2]; 16 gae/ha alone
  Visual Weed Control (%) - 27 DAA SETFA Obs: 8%
[2]; 32 gae/ha alone
  Visual Weed Control (%) - 27 DAA SETFA Obs: 15%
